Activity calls are given as the source filed them. The rule behind the calls is not given here.
Key:
Mus musculus [1] = species: Mus musculus; assay: Toxicity in KK-Ay diabetic mouse model assessed as effect on average 24 hrs food consumption by measured food consumption at 1.1 mg added daily to normal chow pellets for 10 weeks (reference value: 4.7 +/- 0.2 g); type: organism-based; details: in vivo, po
Mus musculus [2] = species: Mus musculus; assay: Effect on AMPKalpha2 mRNA expression levels in liver of KK-Ay diabetic mouse model at 0.4 to 1.1 mg added daily to normal chow pellets for 10 weeks by qRT-PCR analysis; type: functional, organism-based
Mus musculus [3] = species: Mus musculus; assay: Toxicity in KK-Ay diabetic mouse model assessed as effect on body weight at 0.4 mg added daily to normal chow pellets for 4 weeks; type: organism-based; details: in vivo, po, 672 h
Mus musculus [4] = species: Mus musculus; assay: Effect on Mtor mRNA expression levels in adipose tissue of KK-Ay diabetic mouse model at 0.4 to 1.1 mg added daily to normal chow pellets for 10 weeks by qRT-PCR analysis; type: functional, organism-based
Mus musculus [5] = species: Mus musculus; assay: Effect on GLUT2 mRNA expression levels in adipose tissue of KK-Ay diabetic mouse model at 0.4 to 1.1 mg added daily to normal chow pellets for 10 weeks by qRT-PCR analysis; type: functional, organism-based
Mus musculus [6] = species: Mus musculus; assay: Effect on GYS2 mRNA expression levels in liver of KK-Ay diabetic mouse model at 0.4 to 1.1 mg added daily to normal chow pellets for 10 weeks by qRT-PCR analysis; type: functional, organism-based
Mus musculus [7] = species: Mus musculus; assay: Effect on PPARGC1alpha mRNA expression levels in liver of KK-Ay diabetic mouse model at 0.4 to 1.1 mg added daily to normal chow pellets for 10 weeks by qRT-PCR analysis; type: functional, organism-based
Mus musculus [8] = species: Mus musculus; assay: Antidiabetic activity in KK-Ay diabetic mouse model assessed as increase in INSR mRNA expression levels in liver tissue at 1.1 mg added daily to normal chow pellets for 10 weeks by qRT-PCR analysis; type: functional, organism-based
Mus musculus [9] = species: Mus musculus; assay: Antidiabetic activity in KK-Ay diabetic mouse model assessed as reduction in plasma glucagon levels at 0.4 mg added daily to normal chow pellets for 10 weeks relative to control by radioimmunoassay; type: functional; set-up: scale not given: the % may be the effect or the level left
Mus musculus [10] = species: Mus musculus; assay: Effect on PKCdelta mRNA expression levels in muscle of KK-Ay diabetic mouse model at 0.4 to 1.1 mg added daily to normal chow pellets for 10 weeks by qRT-PCR analysis; type: functional, organism-based
Mus musculus [11] = species: Mus musculus; assay: Effect on SOD1 mRNA expression levels in adipose tissue of KK-Ay diabetic mouse model at 0.4 to 1.1 mg added daily to normal chow pellets for 10 weeks by qRT-PCR analysis; type: functional, organism-based
Mus musculus [12] = species: Mus musculus; assay: Effect on CD36 mRNA expression levels in adipose tissue of KK-Ay diabetic mouse model at 0.4 to 1.1 mg added daily to normal chow pellets for 10 weeks by qRT-PCR analysis; type: functional, organism-based
Mus musculus [13] = species: Mus musculus; assay: Effect on triglyceride concentration in liver of KK-Ay diabetic mouse model at 0.4 to 1.1 mg added daily to normal chow pellets for 10 weeks; type: functional, organism-based
Mus musculus [14] = species: Mus musculus; assay: Induction of 3.3 mM glucose-stimulated insulin secretion in pancreatic islets isolated from KK-Ay diabetic mouse model at 0.4 mg added daily to normal chow pellets for 10 weeks followed by glucose stimulation of isolated pancreatic islets for 1 hr by radioimmunoassay relative to control; type: functional
Mus musculus [15] = species: Mus musculus; assay: Effect on PPARGC1alpha mRNA expression levels in muscle of KK-Ay diabetic mouse model at 0.4 to 1.1 mg added daily to normal chow pellets for 10 weeks by qRT-PCR analysis; type: functional, organism-based
Mus musculus [16] = species: Mus musculus; assay: Effect on Mtor mRNA expression levels in muscle of KK-Ay diabetic mouse model at 0.4 to 1.1 mg added daily to normal chow pellets for 10 weeks by qRT-PCR analysis; type: functional, organism-based
Mus musculus [17] = species: Mus musculus; assay: Effect on LXRalpha mRNA expression levels in liver of KK-Ay diabetic mouse model at 0.4 to 1.1 mg added daily to normal chow pellets for 10 weeks by qRT-PCR analysis; type: functional, organism-based
Mus musculus [18] = species: Mus musculus; assay: Effect on IRS2 mRNA expression levels in adipose tissue of KK-Ay diabetic mouse model at 0.4 to 1.1 mg added daily to normal chow pellets for 10 weeks by qRT-PCR analysis; type: functional, organism-based
Mus musculus [19] = species: Mus musculus; assay: Effect on Akt2 mRNA expression levels in adipose tissue of KK-Ay diabetic mouse model at 0.4 to 1.1 mg added daily to normal chow pellets for 10 weeks by qRT-PCR analysis; type: functional, organism-based
Mus musculus [20] = species: Mus musculus; assay: Effect on FAS mRNA expression levels in adipose tissue of KK-Ay diabetic mouse model at 0.4 to 1.1 mg added daily to normal chow pellets for 10 weeks by qRT-PCR analysis; type: functional, organism-based
Mus musculus [21] = species: Mus musculus; assay: Induction of […] glucose-stimulated insulin secretion in pancreatic islets isolated from KK-Ay diabetic mouse model at 0.4 mg added daily to normal chow pellets for 10 weeks followed by glucose stimulation of isolated pancreatic islets for 1 hr by radioimmunoassay relative to control; type: functional
Mus musculus [22] = species: Mus musculus; assay: Induction of […] glucose-stimulated insulin secretion in pancreatic islets isolated from KK-Ay diabetic mouse model at 1.1 mg added daily to normal chow pellets for 10 weeks followed by glucose stimulation of isolated pancreatic islets for 1 hr by radioimmunoassay relative to control; type: functional
Mus musculus [23] = species: Mus musculus; assay: Effect on Gcgr mRNA expression levels in liver of KK-Ay diabetic mouse model at 0.4 to 1.1 mg added daily to normal chow pellets for 10 weeks by qRT-PCR analysis; type: functional, organism-based
Mus musculus [24] = species: Mus musculus; assay: Antidiabetic activity in KK-Ay diabetic mouse model assessed as reduction in HOMA-IR levels at 0.4 mg added daily to normal chow pellets for 10 weeks; type: functional, organism-based
Mus musculus [25] = species: Mus musculus; assay: Effect on PPARgamma mRNA expression levels in adipose tissue of KK-Ay diabetic mouse model at 0.4 to 1.1 mg added daily to normal chow pellets for 10 weeks by qRT-PCR analysis; type: functional, organism-based
Mus musculus [26] = species: Mus musculus; assay: Effect on Adipor1 mRNA expression levels in muscle of KK-Ay diabetic mouse model at 0.4 to 1.1 mg added daily to normal chow pellets for 10 weeks by qRT-PCR analysis; type: functional, organism-based
Mus musculus [27] = species: Mus musculus; assay: Effect on Pi3K mRNA expression levels in muscle of KK-Ay diabetic mouse model at 0.4 to 1.1 mg added daily to normal chow pellets for 10 weeks by qRT-PCR analysis; type: functional, organism-based
Mus musculus [28] = species: Mus musculus; assay: Antidiabetic activity in KK-Ay diabetic mouse model assessed as decrease in plasma triglycerides level at 0.14 to 1.1 mg added daily to normal chow pellets for 10 weeks by colorimetric analysis; type: functional, organism-based
Mus musculus [29] = species: Mus musculus; assay: Effect on InsR mRNA expression levels in muscle of KK-Ay diabetic mouse model at 0.4 to 1.1 mg added daily to normal chow pellets for 10 weeks by qRT-PCR analysis; type: functional, organism-based
Mus musculus [30] = species: Mus musculus; assay: Effect on 18s rRNA expression levels in muscle of KK-Ay diabetic mouse model at 0.4 to 1.1 mg added daily to normal chow pellets for 10 weeks by qRT-PCR analysis; type: functional, organism-based
Mus musculus [31] = species: Mus musculus; assay: Antidiabetic activity in KK-Ay diabetic mouse model assessed as increase in insulin levels in plasma at 0.4 mg added daily to normal chow pellets for 10 weeks by radioimmunoassay; type: functional, organism-based
Mus musculus [32] = species: Mus musculus; assay: Effect on IRS2 mRNA expression levels in liver of KK-Ay diabetic mouse model at 0.4 to 1.1 mg added daily to normal chow pellets for 10 weeks by qRT-PCR analysis; type: functional, organism-based

Structure (SMILES): C[C@@]12CCc3occc3[C@H]1CC[C@@]13C[C@H](CC[C@H]12)[C@@](O)(CO)C3
- Activity (Mus musculus [1]): 5.9 g
- Activity (Mus musculus [2]): inactive
- Activity (Mus musculus [3]): Non-Toxic
- Activity (Mus musculus [4]): inactive
- Activity (Mus musculus [5]): inactive
- Activity (Mus musculus [6]): inactive
- Activity (Mus musculus [7]): inactive
- Activity (Mus musculus [8]): Active
- Activity (Mus musculus [9]): 28%
- Activity (Mus musculus [10]): inactive
- Activity (Mus musculus [11]): inactive
- Activity (Mus musculus [12]): inactive
- Activity (Mus musculus [13]): inactive
- Activity (Mus musculus [14]): 67%
- Activity (Mus musculus [15]): inactive
- Activity (Mus musculus [16]): inactive
- Activity (Mus musculus [17]): inactive
- Activity (Mus musculus [18]): inactive
- Activity (Mus musculus [19]): inactive
- Activity (Mus musculus [20]): inactive
- Activity (Mus musculus [21]): 87%
- Activity (Mus musculus [22]): 75%
- Activity (Mus musculus [23]): inactive
- Activity (Mus musculus [24]): inactive
- Activity (Mus musculus [25]): inactive
- Activity (Mus musculus [26]): inactive
- Activity (Mus musculus [27]): inactive
- Activity (Mus musculus [28]): inactive
- Activity (Mus musculus [29]): inactive
- Activity (Mus musculus [30]): inactive
- Activity (Mus musculus [31]): inactive
- Activity (Mus musculus [32]): inactive
